Test results published in patent US20110039762A1, “TARGETED ANTIMICROBIAL MOIETIES” (C3 JIAN, INC., priority 2009, published 2011).
“Also recorded” adds a separate entry of the source.

What follows are substances tested on microorganisms (e.g., bacteria, yeasts, fungi) (assay: Targeting peptide binding to target microorganisms (Table 3)). Conditions: microorganism the targeting peptide binds; binding in aqueous buffers varied by peptide solubility, preferably 1x PBS.

Q: Which “Target(s)” value does the source give for “1T-65 (HARAAVGVAELPRGAAVEVELIAAVRP; Peptide with targeting and/or antimicrobial activity) [Peptide 1T-65]” here?
A: S. mutans; also recorded: S. aureus; also recorded: S. epidermidis; also recorded: C. jeikeium; also recorded: C. xerosis; also recorded: C. striatum; also recorded: P. aeruginosa

Q: “1T-66 (DTDCLSRAYAQRIDELDKQYAGIDKPL; Peptide with targeting and/or antimicrobial activity) [Peptide 1T-66]” was tested. Which “Target(s)” value did it give?
A: S. mutans; also recorded: S. aureus; also recorded: S. epidermidis; also recorded: C. jeikeium; also recorded: C. xerosis; also recorded: C. striatum; also recorded: P. aeruginosa

Q: With “1T-67 (GQRQRLTCGRVSGCSEGPSREAAR; Peptide with targeting and/or antimicrobial activity) [Peptide 1T-67]” as the substance, how does the “Target(s)” value read?
A: S. aureus; also recorded: S. epidermidis; also recorded: C. jeikeium; also recorded: C. xerosis; also recorded: C. striatum; also recorded: P. aeruginosa

Q: How did the “Target(s)” value turn out when “1T-68 (GGTKEIVYQRG; Peptide with targeting and/or antimicrobial activity) [Peptide 1T-68]” was run?
A: S. mutans; also recorded: S. aureus; also recorded: C. jeikeium; also recorded: C. xerosis; also recorded: C. striatum; also recorded: P. aeruginosa

Q: “1T-69 (ILSQEADRKKLF; Peptide with targeting and/or antimicrobial activity) [Peptide 1T-69]” was tested. Which “Target(s)” value did it give?
A: S. mutans; also recorded: P. aeruginosa

Q: “1T-70 (NRQAQGERAHGEQQG; Peptide with targeting and/or antimicrobial activity) [Peptide 1T-70]” was tested. Which “Target(s)” value did it give?
A: S. aureus; also recorded: C. jeikeium; also recorded: P. aeruginosa

Q: With “1T-71 (KIDTNQWPPNKEG; Peptide with targeting and/or antimicrobial activity) [Peptide 1T-71]” as the substance, how does the “Target(s)” value read?
A: P. aeruginosa

Q: How did the “Target(s)” value turn out when “1T-72 (EPTDGVACKER; Peptide with targeting and/or antimicrobial activity) [Peptide 1T-72]” was run?
A: P. aeruginosa

Q: Which “Target(s)” value does the source give for “1T-73 (GWWEELLHETILSKFKITKALELPIQL; Peptide with targeting and/or antimicrobial activity) [Peptide 1T-73]” here?
A: S. pneumoniae

Q: “1T-74 (DIDWGRKISCAAGVAYGAIDGCATTV; Peptide with targeting and/or antimicrobial activity) [Peptide 1T-74]” was tested. Which “Target(s)” value did it give?
A: S. pneumoniae

Q: Which “Target(s)” value does the source give for “1T-75 (GVARGLQLGIKTRTQWGAATGAA; Peptide with targeting and/or antimicrobial activity) [Peptide 1T-75]” here?
A: S. pneumoniae

Q: How did the “Target(s)” value turn out when “1T-76 (EMRLSKFFRDFILWRKK; Peptide with targeting and/or antimicrobial activity) [Peptide 1T-76]” was run?
A: S. pneumoniae

Q: How did the “Target(s)” value turn out when “1T-77 (EMRISRIILDFLFLRKK; Peptide with targeting and/or antimicrobial activity) [Peptide 1T-77]” was run?
A: S. pneumoniae

Q: With “1T-78 (FFKTIFVLILGALGVAAGLYIEKNYIDK; Peptide with targeting and/or antimicrobial activity) [Peptide 1T-78]” as the substance, how does the “Target(s)” value read?
A: S. pneumoniae

Q: “1T-79 (FGTPWSITNFWKKNFNDRPDFDSDRRRY; Peptide with targeting and/or antimicrobial activity) [Peptide 1T-79]” was tested. Which “Target(s)” value did it give?
A: S. pneumoniae

Q: How did the “Target(s)” value turn out when “1T-80 (GGNLGPGFGVIIP; Peptide with targeting and/or antimicrobial activity) [Peptide 1T-80]” was run?
A: S. pneumoniae

Q: “1T-81 (AIATGLDIVDGKFDGYLWA; Peptide with targeting and/or antimicrobial activity) [Peptide 1T-81]” was tested. Which “Target(s)” value did it give?
A: S. pneumoniae

Q: “1T-82 (FGVGVGIALFMAGYAIGKDLRKKFGKSC; Peptide with targeting and/or antimicrobial activity) [Peptide 1T-82]” was tested. Which “Target(s)” value did it give?
A: S. pneumoniae

Q: “1T-83 (QKPRKNETFIGYIQRYDIDGNGYQSLPCPQN; Peptide with targeting and/or antimicrobial activity) [Peptide 1T-83]” was tested. Which “Target(s)” value did it give?
A: S. pneumoniae

Q: “1T-84 (FRKKRYGLSILLWLNAFTNLVNSIHAFYMTLF; Peptide with targeting and/or antimicrobial activity) [Peptide 1T-84]” was tested. Which “Target(s)” value did it give?
A: S. pneumoniae

Q: “1T-86 (HRKNPVLGVGRRHRAHNVA; Peptide with targeting and/or antimicrobial activity) [Peptide 1T-86]” was tested. Which “Target(s)” value did it give?
A: S. mitis; also recorded: S. oralis; also recorded: S. salivarious

Q: For “1T-87 (EAVGQDLVDAHHP; Peptide with targeting and/or antimicrobial activity) [Peptide 1T-87]”, which “Target(s)” value is on record?
A: S. mitis; also recorded: S. mutans; also recorded: S. oralis

Q: “1T-89 (HEDDKRRGMSVEVLGFEVVQHEE; Peptide with targeting and/or antimicrobial activity) [Peptide 1T-89]” was tested. Which “Target(s)” value did it give?
A: S. mitis; also recorded: S. mutans

Q: “1T-90 (RNVIGQVL; Peptide with targeting and/or antimicrobial activity) [Peptide 1T-90]” was tested. Which “Target(s)” value did it give?
A: S. gordonii; also recorded: S. mitis; also recorded: S. mutans; also recorded: S. oralis; also recorded: S. sanguinis

Q: “1T-91 (TSVRPGAAGAAVPAGAAGAAGAGWRWP; Peptide with targeting and/or antimicrobial activity) [Peptide 1T-91]” was tested. Which “Target(s)” value did it give?
A: S. mitis; also recorded: S. mutans; also recorded: S. oralis; also recorded: S. sanguinis

Q: With “1T-92 (GQDEGQRRAGVGEGQGVDG; Peptide with targeting and/or antimicrobial activity) [Peptide 1T-92]” as the substance, how does the “Target(s)” value read?
A: S. mitis; also recorded: S. mutans

Q: For “1T-93 (AMRSVNQA; Peptide with targeting and/or antimicrobial activity) [Peptide 1T-93]”, which “Target(s)” value is on record?
A: S. epidermidis; also recorded: S. gordonii; also recorded: S. mitis; also recorded: S. mutans; also recorded: S. oralis; also recorded: S. sanguinis

Q: For “1T-94 (DQVAHSGDMLVQARRRDS; Peptide with targeting and/or antimicrobial activity) [Peptide 1T-94]”, which “Target(s)” value is on record?
A: S. mitis; also recorded: S. mutans; also recorded: S. oralis

Q: How did the “Target(s)” value turn out when “1T-95 (GHLLRVGGRVGGVGGVAGACAQPFGGQ; Peptide with targeting and/or antimicrobial activity) [Peptide 1T-95]” was run?
A: S. gordonii; also recorded: S. mitis; also recorded: S. mutans; also recorded: S. oralis; also recorded: S. sanguinis

Q: “1T-96 (VAGACAQPFGGQ; Peptide with targeting and/or antimicrobial activity) [Peptide 1T-96]” was tested. Which “Target(s)” value did it give?
A: S. gordonii; also recorded: S. mitis; also recorded: S. mutans; also recorded: S. oralis; also recorded: S. sanguinis

Q: For “1T-99 (MKAWLGQ; Peptide with targeting and/or antimicrobial activity) [Peptide 1T-99]”, which “Target(s)” value is on record?
A: S. gordonii; also recorded: S. mitis; also recorded: S. mutans; also recorded: S. oralis; also recorded: S. sanguinis

Q: With “1T-100 (LDPLEPRIAPPGDRSHQGAPACHRDPLRGRSARDAER; Peptide with targeting and/or antimicrobial activity) [Peptide 1T-100]” as the substance, how does the “Target(s)” value read?
A: S. gordonii; also recorded: S. mitis; also recorded: S. mutans

Q: “1T-101 (RLRVGRATDLPLTSFAVGVVRNLPDAPAH; Peptide with targeting and/or antimicrobial activity) [Peptide 1T-101]” was tested. Which “Target(s)” value did it give?
A: A. naeslundii; also recorded: P. gingivalis; also recorded: S. epidermidis; also recorded: S. gordonii; also recorded: S. mitis; also recorded: S. mutans; also recorded: S. oralis; also recorded: S. sanguinis

Q: How did the “Target(s)” value turn out when “1T-104 (RAVAAHLQGRHHGHQVRRQRHGQR; Peptide with targeting and/or antimicrobial activity) [Peptide 1T-104]” was run?
A: S. mitis

Q: For “1T-105 (GEGLPPPVLHLPPPRMSGR; Peptide with targeting and/or antimicrobial activity) [Peptide 1T-105]”, which “Target(s)” value is on record?
A: S. epidermidis; also recorded: S. gordonii; also recorded: S. mitis; also recorded: S. mutans; also recorded: S. oralis

Q: How did the “Target(s)” value turn out when “1T-106 (DALRRSRSQGRRHR; Peptide with targeting and/or antimicrobial activity) [Peptide 1T-106]” was run?
A: S. gordonii; also recorded: S. mitis; also recorded: S. mutans; also recorded: S. oralis; also recorded: S. salivarious

Q: For “1T-107 (SPVPRFTAVGGVSRGSP; Peptide with targeting and/or antimicrobial activity) [Peptide 1T-107]”, which “Target(s)” value is on record?
A: A. naeslundii; also recorded: S. epidermidis; also recorded: S. gordonii; also recorded: S. mitis; also recorded: S. mutans; also recorded: S. oralis; also recorded: S. salivarious; also recorded: S. sanguinis

Q: With “1T-108 (WGPLGPERPLW; Peptide with targeting and/or antimicrobial activity) [Peptide 1T-108]” as the substance, how does the “Target(s)” value read?
A: S. gordonii; also recorded: S. mitis; also recorded: S. mutans; also recorded: S. oralis; also recorded: S. salivarious; also recorded: S. sanguinis

Q: For “1T-109 (VTTNVRQGAGS; Peptide with targeting and/or antimicrobial activity) [Peptide 1T-109]”, which “Target(s)” value is on record?
A: A. naeslundii; also recorded: S. epidermidis; also recorded: S. gordonii; also recorded: S. mitis; also recorded: S. mutans; also recorded: S. oralis; also recorded: S. salivarious; also recorded: S. sanguinis

Q: With “1T-110 (LAAKTAVCVGRAFM; Peptide with targeting and/or antimicrobial activity) [Peptide 1T-110]” as the substance, how does the “Target(s)” value read?
A: A. naeslundii; also recorded: P. gingivalis; also recorded: S. epidermidis; also recorded: S. gordonii; also recorded: S. mitis; also recorded: S. mutans; also recorded: S. oralis; also recorded: S. sanguinis

Q: For “1T-112 (SDNDGKLILGTSQ; Peptide with targeting and/or antimicrobial activity) [Peptide 1T-112]”, which “Target(s)” value is on record?
A: S. gordonii

Q: How did the “Target(s)” value turn out when “1T-113 (HGAHQRTGQRLHHHRGRTVSGCRQNPVAGVDPDEHR; Peptide with targeting and/or antimicrobial activity) [Peptide 1T-113]” was run?
A: S. mitis
